From patent publication US9241976B2, “Use of HDL-related molecules to treat and prevent proinflammatory conditions” (THE REGENTS OF THE UNIVERSITY OF CALIFORNIA, priority 2011, dated 2016)

Key:
p70s6 kinase = experiment: Insulin-stimulated phosphorylation of S6 kinase in OV2008 cells, Western blot; assay type: cell-based, human; conditions: 10 μg/ml, insulin 200 nM
Experimental: (§1) FIGS. 10A-10B. Effect of L-4F on the insulin-stimulated activation of downstream signaling molecules in OV2008 cells. After an overnight starvation, OV2008 cells were treated with L-4F (10 μg/ml) for 1 h, and insulin was added at a final concentration of 200 nM. Cell lysates were collected at various time points and subjected to Western blot analysis. FIG. 10A, L-4F inhibits insulin-stimulated phosphorylation of p70s6 kinase and subsequent HIF-1α expression in OV2008 cells. FIG. 10B, effect of L-4F on insulinstimulated phosphorylation of ERK1/2 and Akt in OV2008 cells.
(§2) Western blot analyses were performed as described previously (Gao et al., 2011). In brief, cell lysates were collected in a lysis buffer containing 0.1 MNaCl, 5 mM EDTA, 50 μM sodium orthovanadate, 1% Triton X-100, and protease inhibitor tablet (Roche Diagnostics, Indianapolis, Ind.) in 50 mM Tris buffer, pH 7.5, loaded onto 4 to 12% Bis-Tris gel (Invitrogen), transferred to polyvinylidene difluoride membrane, and incubated with the appropriate antibodies. […]

CT26 cells [1] = experiment: LPA-induced viability of CT26 cells; assay type: cell-based, mouse; conditions: L-4F 10 mg/mL with LPA 5, 10, 48 hours
Experimental: (§3) FIGS. 17A-17B. HDL mimetic, L-4F inhibits LPA induced viability of CT26 cells and reduces LPA levels in cell culture medium. FIG. 17A, CT26 cells were cultured as described in Example 5 and incubated with either L-4F at 10 mg/mL or LPA at a concentration 5, 10, […], or cells were treated with both L-4F and LPA for 48 hours. All experiments were conducted in triplicate and each assay was carried out in quadruplicates. Data are represented as the mean±SD of the percent of control cells. FIG. 17B, LPA levels were measured in the cell culture medium after 48 hours of treatment.
The peptides were dissolved in H2O.

CD31 = experiment: ID8 flank tumor model, CD31 staining of vessels; assay type: in vivo, mouse; conditions: C57BL/6J mice, 10 mg/kg s.c. daily for 3 weeks, vs control group
Experimental: Nine-week-old C57BL/6J female mice were given a 0.5-ml subcutaneous injection of 5×10^6 ID8 cells prepared as a single cell suspension in PBS mixed with an equal volume of cold Matrigel (BD Biosciences, San Jose, Calif.). After 2 weeks, mice started to receive scrambled 4F peptide (sc-4F) or L-4F (10 mg/kg) by subcutaneous injection at a site distant from the site where the ID8 cells were injected daily for 3 weeks. After 3 weeks, the mice were sacrificed for tumor collection and further analyses.
Frozen tumor tissues were sectioned at a thickness of 5 μm and fixed with cold acetone for 10 min at −20° C. The sections were blocked with 10% normal goat serum and 4% bovine serum albumin prepared in PBS for 3 h and immediately incubated with rabbit anti-mouse polyclonal HIF-1α antibody (1:200) (Abcam Inc.) or rat anti-mouse monoclonal CD31 antibody (1:25) (Abcam Inc.) overnight at 4° C. The sections were then incubated with corresponding biotinylated secondary antibodies (Vector Laboratories) for 30 min at room temperature followed by incubation with Vectastain ABC Elite reagents (Vector Laboratories) to visualize the staining. Finally, sections were lightly counterstained with hematoxylin, dehydrated, and coverslipped with Vecta-Mount solution (Vector Laboratories).

ERK1/2 = experiment: Insulin-stimulated phosphorylation of ERK1/2 in OV2008 cells, Western blot; assay type: cell-based, human; conditions: 10 μg/ml, insulin 200 nM
Experimental: as §1, §2

HIF-1α = HIF-1α protein expression in human ovarian cancer cell lines, Western blot; assay type: cell-based
Experimental: OV2008 cells were cultured in RPMI 1640 media with 10% fetal bovine serum, penicillin (100 U/ml), streptomycin (100 μg/ml), 1× minimal essential medium nonessential amino acid solution (Invitrogen, Carlsbad, Calif.), and insulin (0.25 U/ml) (Invitrogen). CAOV-3 cells were cultured in complete media consisting of Dulbecco's modified Eagle's medium with high glucose and L-glutamine (2 mM), 10% fetal bovine serum, penicillin (100 U/ml), streptomycin (100 μg/ml), and insulin (0.02 U/ml). To create hypoxic conditions, cells were transferred to a hypoxic chamber (model 3130; Thermo Fisher Scientific, Waltham, Mass.), where they were maintained at 37° C. in an atmosphere containing 5% CO2, 1% O2, and 94% N2. L-4F (the peptide Ac-D-W-F-K-A-F-Y-D-K-V-A-E-K-F-K-E-A-F-NH2 (SEQ ID NO: 12) synthesized from all L amino acids) was dissolved in water at 1 mg/ml (freshly prepared every time) and used between 1 and 10 μg/ml. L-5F was synthesized by Peptisyntha Inc. (Torrance, Calif.), dissolved in ABCT buffer (50 mM ammonium bicarbonate, pH 7.0, containing 0.1 mg/ml Tween 20) at 1 mg/ml, and diluted to the required concentrations before use. Cobalt chloride (CoCl2), insulin, cycloheximide (CHX), and N-(benzyloxycarbonyl)leucinylleucinylleucinal-Z-Leu-Leu-Leu-al (MG-132) were purchased from Sigma-Aldrich (St. Louis, Mo.). LPA (Avanti Polar Lipids, Alabaster, Ala.) in chloroform was dried as recommended by the manufacturer, dissolved in ethanol at a concentration of 20 mM as a stock solution, and diluted to the required concentrations in the corresponding cell culture media before use.
Western blot analyses were performed as described previously (Gao et al., 2011). In brief, cell lysates were collected in a lysis buffer containing 0.1 MNaCl, 5 mM EDTA, 50 μM sodium orthovanadate, 1% Triton X-100, and protease inhibitor tablet (Roche Diagnostics, Indianapolis, Ind.) in 50 mM Tris buffer, pH 7.5, loaded onto 4 to 12% Bis-Tris gel (Invitrogen), transferred to polyvinylidene difluoride membrane, and incubated with the appropriate antibodies. Anti-pThr^202/Tyr^204-Erk, anti-Erk, anti-pThr^389-p70 S6 kinase, anti-p70 S6 kinase, anti-pSer^473-Akt, and anti-Akt antibodies were purchased from Cell Signaling Technology (Danvers, Mass.); mouse anti-human HIF-1α antibody was purchased from BD Pharmingen (San Diego, Calif.); rabbit anti-mouse HIF-1α antibody was purchased from Abcam Inc. (Cambridge, Mass.); and anti-GAPDH antibody was purchased from Santa Cruz Biotechnology Inc. (Santa Cruz, Calif.).

LPA = LPA levels in CT26 cell culture medium; assay type: cell-based, mouse; conditions: CT26 cells; 48 hours; vs control medium
Experimental: as §3
LPA (20:4) was purchased from Avanti Polar Lipids. LPA levels were determined as described previously (19).
LPA has been identified as an important mediator of tumor development, progression, and metastases in humans (26, 27). We have previously shown that apoAI mimetic peptides inhibit LPA-induced viability of ID8 cells and reduce serum LPA levels in mice injected with ID8 cells (17). […] LPA 20:4 and 18:1 were not detectable in cell culture medium (FIG. 17B).

CT26 cells [2] = experiment: CT26 cell viability, MTS assay; conditions: Example 6; MTS assay, within 48 hours of treatment
Experimental: CT26 cell line derived from N-nitroso-N-methyl urethane-induced mouse colon carcinoma of BALB/c origin was purchased from the American Type Culture Collection (ATCC). CT26 cells (2,000 cells per well) were first cultured in complete medium in 96-well culture plates, and 24 hours later the medium was replaced with serum free medium. Following an overnight incubation, the cells were either treated with vehicle (control), or treated with 10 μg/mL of either bHDL. The bHDL were dissolved in H2O. Cells were incubated for an additional 48 hours and assayed for viability using the MTS assays kit (Promega) according to the manufacturer's protocol.
CT26 cell line derived from N-nitroso-N-methyl urethane-induced mouse colon carcinoma of BALB/c origin was purchased from the American Type Culture Collection. CT26 cells (2,000 cells per well) were first cultured in complete medium in 96-well culture plates, and 24 hours later the medium was replaced with serum-free medium. Following an overnight incubation, the cells were either treated with vehicle (control) or treated with 10 mg/mL of either L-4F or G* peptide. The peptides were dissolved in H2O. Cells were incubated for an additional 48 hours and assayed for viability using the MTS assay kit (Promega) according to the manufacturer's protocol.

## Ac-DWFKAFYDKVAEKFKEAF-NH2 [L-4F, Ac-D-W-F-K-A-F-Y-D-K-V-A-E-K-F-K-E-A-F-NH2]
p70s6 kinase
  insulin-stimulated phosphorylation of S6 kinase: prevented phosphorylation
CT26 cells [1]
  LPA-induced viability: significantly reduced
CD31
  number of vessels in tumors: reduction in the number of vessels
ERK1/2
  insulin-stimulated activation of ERK1/2: inhibited activation
HIF-1α; CAOV-3 cells
  CoCl2- and insulin-induced HIF-1α expression: dose-dependently inhibited
HIF-1α; OV2008 cells stimulated first with CoCl2 or insulin 3 h or 24 h, 10 μg/ml
  HIF-1α expression, post-treatment: significantly decreased
HIF-1α; OV2008 cells, pretreatment
  hypoxia-induced (low oxygen 1% O2, CoCl2) HIF-1α protein expression: dose-dependently suppressed
HIF-1α; SKOV3 cells
  CoCl2- and insulin-induced HIF-1α expression: dose-dependently inhibited
LPA
  LPA 16:0 and 18:0 levels in cell culture medium: significantly decreased
CT26 cells [2]
  CT26 cell viability vs vehicle-treated controls: reduced cell viability
